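Values below derive from 48-hour exposures of cells grown in 96-well plates, with endpoints linearly interpolated between the two concentrations bracketing the appropriate inhibition level. GI50: concentration for 50% inhibition of growth. TGI marks complete inhibition of growth.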
Assays:
Experiment in all cases: DTP human tumour cell line panel, 48 h
A549 NSCLC = system: A549 NSCLC
HCT-15 colon = system: HCT-15 colon
HOP-62 NSCLC = system: HOP-62 NSCLC
LOX IMVI melanoma = system: LOX IMVI melanoma
M14 melanoma = system: M14 melanoma
MALME-3M melanoma = system: MALME-3M melanoma
SN12C renal = system: SN12C renal
UO-31 renal = system: UO-31 renal
MDA-MB-231 breast = system: MDA-MB-231 breast
PC-3 prostate = system: PC-3 prostate

Structure (SMILES): CCOC(=O)C(C[Si](C)(C)C)P(=O)(OCC)OCC (centres undefined)
- TGI (A549 NSCLC): > 100 µM
- TGI (HCT-15 colon): > 100 µM
- TGI (HOP-62 NSCLC): > 100 µM
- TGI (LOX IMVI melanoma): > 100 µM
- TGI (M14 melanoma): > 100 µM
- TGI (MALME-3M melanoma): > 100 µM
- TGI (SN12C renal): > 100 µM
- TGI (UO-31 renal): > 100 µM

Structure (SMILES): COc1ccc(C(=O)C=C2NCCN2)cc1
- TGI (A549 NSCLC): > 100 µM
- TGI (HOP-62 NSCLC): > 100 µM
- TGI (LOX IMVI melanoma): > 100 µM
- TGI (M14 melanoma): > 100 µM
- TGI (MALME-3M melanoma): > 100 µM
- TGI (SN12C renal): > 100 µM
- TGI (UO-31 renal): > 100 µM

Structure (SMILES): COc1cc(C2C(C(=O)Nc3ccccc3)=C(C)NC(C)=C2C(=O)Nc2ccccc2)ccc1O
- TGI (A549 NSCLC): > 100 µM
- TGI (HCT-15 colon): > 100 µM
- TGI (HOP-62 NSCLC): > 100 µM
- TGI (MALME-3M melanoma): > 100 µM
- TGI (SN12C renal): > 100 µM
- TGI (UO-31 renal): > 100 µM

Structure (SMILES): O=c1[nH]c(=S)[nH]c(O)c1/C=C1\C=CC=N1
- TGI (A549 NSCLC): > 100 µM
- TGI (HCT-15 colon): 14.8 µM
- TGI (HOP-62 NSCLC): 97.6 µM
- TGI (LOX IMVI melanoma): 46.2 µM
- TGI (M14 melanoma): 54.8 µM
- TGI (MALME-3M melanoma): 34.4 µM
- TGI (SN12C renal): 22.5 µM
- TGI (UO-31 renal): 31.2 µM

Structure (SMILES): CC(C)(C)CC(C)(C)c1ccc(OCCOCCSC(=N)N)cc1
- GI50 (A549 NSCLC): 2.65 µM
- TGI (A549 NSCLC): 8.77 µM
- GI50 (HCT-15 colon): 1.8 µM
- TGI (HCT-15 colon): 3.85 µM
- GI50 (HOP-62 NSCLC): 1.87 µM
- TGI (HOP-62 NSCLC): 3.36 µM
- GI50 (LOX IMVI melanoma): 1.72 µM
- TGI (LOX IMVI melanoma): 3.09 µM
- GI50 (M14 melanoma): 1.8 µM
- TGI (M14 melanoma): 3.39 µM
- GI50 (MDA-MB-231 breast): 1.34 µM
- TGI (MDA-MB-231 breast): 2.94 µM
- GI50 (PC-3 prostate): 2.37 µM
- TGI (PC-3 prostate): 7.25 µM
- GI50 (SN12C renal): 1.81 µM
- TGI (SN12C renal): 3.62 µM
- GI50 (UO-31 renal): 1.75 µM
- TGI (UO-31 renal): 3.91 µM

Structure (SMILES): c1ccc(-c2nc(N3CCNCC3)c3nc(-c4ccccc4)oc3n2)cc1
- GI50 (HCT-15 colon): 1.66 µM
- TGI (HCT-15 colon): 3.18 µM
- GI50 (HOP-62 NSCLC): 1.98 µM
- TGI (HOP-62 NSCLC): 3.94 µM
- GI50 (LOX IMVI melanoma): 1.66 µM
- TGI (LOX IMVI melanoma): 3.17 µM
- GI50 (M14 melanoma): 1.96 µM
- TGI (M14 melanoma): 3.71 µM
- GI50 (MALME-3M melanoma): 1.7 µM
- TGI (MALME-3M melanoma): 3.19 µM
- GI50 (MDA-MB-231 breast): 1.67 µM
- TGI (MDA-MB-231 breast): 3.2 µM
- GI50 (PC-3 prostate): 1.66 µM
- TGI (PC-3 prostate): 3.24 µM
- GI50 (SN12C renal): 1.69 µM
- TGI (SN12C renal): 3.29 µM
- GI50 (UO-31 renal): 1.53 µM
- TGI (UO-31 renal): 2.91 µM

Structure (SMILES): Cc1ccc(NC(=O)C(=O)Cc2nc3ccccc3o2)c(C)c1
- TGI (A549 NSCLC): > 100 µM
- TGI (HCT-15 colon): > 100 µM
- TGI (HOP-62 NSCLC): > 100 µM
- TGI (LOX IMVI melanoma): > 100 µM
- TGI (M14 melanoma): > 100 µM
- TGI (MALME-3M melanoma): > 100 µM
- TGI (SN12C renal): > 100 µM
- TGI (UO-31 renal): > 100 µM

Structure (SMILES): COc1ccc([C@H]2O[C@@H](CO)C[C@]2(O)c2ccc(OC)cc2)cc1
- GI50 (A549 NSCLC): > 100 µM
- TGI (A549 NSCLC): > 100 µM
- GI50 (HCT-15 colon): > 100 µM
- TGI (HCT-15 colon): > 100 µM
- GI50 (HOP-62 NSCLC): > 100 µM
- TGI (HOP-62 NSCLC): > 100 µM
- GI50 (LOX IMVI melanoma): > 100 µM
- TGI (LOX IMVI melanoma): > 100 µM
- GI50 (MALME-3M melanoma): > 100 µM
- TGI (MALME-3M melanoma): > 100 µM
- GI50 (MDA-MB-231 breast): > 100 µM
- TGI (MDA-MB-231 breast): > 100 µM
- GI50 (PC-3 prostate): > 100 µM
- TGI (PC-3 prostate): > 100 µM
- GI50 (SN12C renal): > 100 µM
- TGI (SN12C renal): > 100 µM
- GI50 (UO-31 renal): > 100 µM
- TGI (UO-31 renal): > 100 µM

Structure (SMILES): CCC1(CN(C)C)CC/C(=C\c2ccc3c(c2)OCO3)C1=O (centres undefined)
- TGI (A549 NSCLC): > 100 µM
- TGI (HCT-15 colon): > 100 µM
- TGI (HOP-62 NSCLC): > 100 µM
- TGI (LOX IMVI melanoma): > 100 µM
- TGI (M14 melanoma): > 100 µM
- TGI (MALME-3M melanoma): > 100 µM
- TGI (SN12C renal): > 100 µM
- TGI (UO-31 renal): > 100 µM

From PubChem BioAssay (NCI)
